Assays:
[1] = tested on: T. cruzi epimastigotes Y strain; test: Synergism BZL with LTD-CPH-CFZ in epimastigotes, Y strain (CompuSyn); assay type: cell-based, Trypanosoma cruzi
Experimental: Parasites´ growth was evaluated at different concentrations of BZL, CV and CV structural analogues, and parasite proliferation was determined after 48 h. […] Growth was determined by counting in a Neubauer chamber and viability assays by using “Cell Titer 96 Aqueous One Solution Cell Proliferation Assay (MTS)” (Promega, Madison, WI, USA) according to the manufacturer’s instructions. Amastigotes were fixed with methanol, stained and mounted with Vectashield with DAPI (Vector Laboratories, Burlingame, CA, USA), and then the non-lysed cells were counted by using fluorescence microscopy. Calculations were performed using CompuSyn software (http://combosyn.com) which is based on the median-effect equation [48] and its extension, the combination index.

[2] = tested on: T. cruzi epimastigotes CL Brener strain; test: Trypanocidal activity in epimastigotes, CL Brener strain; assay type: cell-based, Trypanosoma cruzi; conditions: Y vs CL Brener
Experimental: (§1) VERO cells (5 x10^4 per well) were infected with trypomastigotes (2.5 ×10^5 per well) for 4 h. After this period, the infected cells were washed twice with phosphate-buffered saline (PBS), the MEM medium was replaced, and the cells were kept in culture at 37°C, 5% CO2. In order to obtain intracellular amastigotes, the cells were lysed 4 days after infection using a cell scraper, collected, washed twice with PBS (or MEM) and counted using a hemocytometer. Trypomastigotes were obtained from infected VERO cells as previously described.
Epimastigotes of T. cruzi were cultured as described above, in 24-wells plate at a start density of 0.5 x10^7 cells/mL in BHT medium. Parasites´ growth was evaluated at different concentrations of BZL, CV and CV structural analogues, and parasite proliferation was determined after 48 h. […] Growth was determined by counting in a Neubauer chamber and viability assays by using “Cell Titer 96 Aqueous One Solution Cell Proliferation Assay (MTS)” (Promega, Madison, WI, USA) according to the manufacturer’s instructions. Amastigotes were fixed with methanol, stained and mounted with Vectashield with DAPI (Vector Laboratories, Burlingame, CA, USA), and then the non-lysed cells were counted by using fluorescence microscopy.

[3] = Toxicity assay in VERO cells (gentian violet staining); assay type: cell-based, African green monkey; conditions: African green monkey, VERO cells, 24 h, read-out: viability of the VERO cells, percentage of untreated cells
Experimental: (§2) VERO cells (African green monkey Kidney, ATCC CCL-81) were cultured in MEM medium supplemented with 10% heat inactivated FCS, 0.15% (w/v) NaHCO3, 100 U/mL penicillin and 100 U/mL streptomycin at 37°C in 5% CO2.
(§3) The toxicity of the compounds was determined in VERO cells by the gentian violet staining assay. Briefly, the cells (1 x10^4 cells/well) were incubated in 96-well plates with the indicated compound or dimethyl sulfoxide (DMSO) as negative control and maintained at 37° C for 24 h. Then the cells were fixed for 15 min, and stained with 0.5% gentian violet. The absorbance was measured at 570 nm. The selectivity index (SI) was calculated for each CV analogue as the ratio between the IC50 obtained in mammalian cells and the IC50 in trypomastigotes. For the combined treatment, the results were presented as percentage of untreated cells.

[4] = tested on: VERO cells; test: as above; assay type: cell-based, African green monkey; conditions: IC50 in VERO cells / IC50 in trypomastigotes (Y strain)
Experimental: as §2, §3

[5] = tested on: T. cruzi epimastigotes Dm28c strain; test: Trypanocidal activity in epimastigotes, Dm28c strain; assay type: cell-based, Trypanosoma cruzi
Experimental: as §1
Epimastigotes of T. cruzi were cultured as described above, in 24-wells plate at a start density of 0.5 x10^7 cells/mL in BHT medium. Parasites´ growth was evaluated at different concentrations of BZL, CV and CV structural analogues, and parasite proliferation was determined after 48 h. Trypanocidal activity in trypomastigotes and amastigotes was performed using 1 x10^6 cells/mL in 96-well plates and incubating at 37°C for 24 h in the presence of the corresponding drug. Growth was determined by counting in a Neubauer chamber and viability assays by using “Cell Titer 96 Aqueous One Solution Cell Proliferation Assay (MTS)” (Promega, Madison, WI, USA) according to the manufacturer’s instructions. Amastigotes were fixed with methanol, stained and mounted with Vectashield with DAPI (Vector Laboratories, Burlingame, CA, USA), and then the non-lysed cells were counted by using fluorescence microscopy.

O=C(Cn1ccnc1[N+](=O)[O-])NCc1ccccc1 [Benznidazole]
DRI BZL ([1]; BZL 5.00 µM + LTD-CPH-CFZ 3.40 µM (1/25 IC50)): 2.45 ± 0.40
DRI BZL ([1]; BZL 5.00 µM + LTD-CPH-CFZ 8.50 µM (1/10 IC50)): 5.48 ± 0.48
DRI BZL ([1]; BZL 5.00 µM + LTD-CPH-CFZ 17.00 µM (1/5 IC50)): 10.31 ± 1.72
DRI BZL ([1]; BZL 5.00 µM + LTD-CPH-CFZ 42.50 µM (1/2 IC50)): 63.09 ± 8.25
DRI BZL ([1]; BZL 10.00 µM + LTD-CPH-CFZ 3.40 µM (1/25 IC50)): 3.89 ± 0.11
DRI BZL ([1]; BZL 10.00 µM + LTD-CPH-CFZ 8.50 µM (1/10 IC50)): 5.45 ± 0.19
DRI BZL ([1]; BZL 10.00 µM + LTD-CPH-CFZ 17.00 µM (1/5 IC50)): 10.20 ± 0.87
DRI BZL ([1]; BZL 10.00 µM + LTD-CPH-CFZ 42.50 µM (1/2 IC50)): 45.77 ± 3.03
DRI BZL ([1]; BZL 20.00 µM + LTD-CPH-CFZ 3.40 µM (1/25 IC50)): 5.88 ± 0.56
DRI BZL ([1]; BZL 20.00 µM + LTD-CPH-CFZ 8.50 µM (1/10 IC50)): 7.44 ± 0.23
DRI BZL ([1]; BZL 20.00 µM + LTD-CPH-CFZ 17.00 µM (1/5 IC50)): 10.94 ± 1.56
DRI BZL ([1]; BZL 20.00 µM + LTD-CPH-CFZ 42.50 µM (1/2 IC50)): 68.51 ± 13.29
Dose BZL alone ([1]; same effect (Fa 0.112) as BZL 0.10 µM + LTD-CPH-CFZ 3.40 µM): 1.66 ± 0.28 µM
Dose BZL alone ([1]; same effect (Fa 0.257) as BZL 1.00 µM + LTD-CPH-CFZ 3.40 µM): 5.12 ± 0.06 µM
Dose BZL alone ([1]; same effect (Fa 0.324) as BZL 0.10 µM + LTD-CPH-CFZ 8.50 µM): 7.37 ± 0.49 µM
Dose BZL alone ([1]; same effect (Fa 0.430) as BZL 5.00 µM + LTD-CPH-CFZ 3.40 µM): 12.27 ± 2.01 µM
Dose BZL alone ([1]; same effect (Fa 0.447) as BZL 1.00 µM + LTD-CPH-CFZ 8.50 µM): 13.27 ± 2.61 µM
Dose BZL alone ([1]; same effect (Fa 0.609) as BZL 5.00 µM + LTD-CPH-CFZ 8.50 µM): 27.38 ± 2.41 µM
Dose BZL alone ([1]; same effect (Fa 0.673) as BZL 0.10 µM + LTD-CPH-CFZ 17.00 µM): 37.42 ± 3.25 µM
Dose BZL alone ([1]; same effect (Fa 0.682) as BZL 10.00 µM + LTD-CPH-CFZ 3.40 µM): 38.95 ± 1.06 µM
Dose BZL alone ([1]; same effect (Fa 0.732) as BZL 5.00 µM + LTD-CPH-CFZ 17.00 µM): 51.57 ± 8.60 µM
Dose BZL alone ([1]; same effect (Fa 0.740) as BZL 1.00 µM + LTD-CPH-CFZ 17.00 µM): 53.83 ± 6.79 µM
Dose BZL alone ([1]; same effect (Fa 0.743) as BZL 10.00 µM + LTD-CPH-CFZ 8.50 µM): 54.45 ± 1.86 µM
Dose BZL alone ([1]; same effect (Fa 0.821) as BZL 0.10 µM + LTD-CPH-CFZ 42.50 µM): 92.37 ± 17.51 µM
Dose BZL alone ([1]; same effect (Fa 0.835) as BZL 10.00 µM + LTD-CPH-CFZ 17.00 µM): 101.97 ± 8.68 µM
Dose BZL alone ([1]; same effect (Fa 0.852) as BZL 20.00 µM + LTD-CPH-CFZ 3.40 µM): 117.55 ± 11.14 µM
Dose BZL alone ([1]; same effect (Fa 0.877) as BZL 20.00 µM + LTD-CPH-CFZ 8.50 µM): 148.83 ± 4.56 µM
Dose BZL alone ([1]; same effect (Fa 0.881) as BZL 1.00 µM + LTD-CPH-CFZ 42.50 µM): 157.01 ± 24.63 µM
Dose BZL alone ([1]; same effect (Fa 0.909) as BZL 20.00 µM + LTD-CPH-CFZ 17.00 µM): 218.81 ± 31.25 µM
Dose BZL alone ([1]; same effect (Fa 0.933) as BZL 5.00 µM + LTD-CPH-CFZ 42.50 µM): 315.46 ± 41.27 µM
Dose BZL alone ([1]; same effect (Fa 0.951) as BZL 10.00 µM + LTD-CPH-CFZ 42.50 µM): 457.73 ± 30.35 µM
Dose BZL alone ([1]; same effect (Fa 0.981) as BZL 20.00 µM + LTD-CPH-CFZ 42.50 µM): 1370.11 ± 265.72 µM
fold more sensitive Y vs CL Brener epimastigotes [2]: 1.3 fold
viability at 24 h, 5 µM ([3]; BZL 5.0 µM + LTD-CPH-CFZ 0 µM): 96.6%
viability at 24 h, 10 µM ([3]; BZL 10.0 µM + LTD-CPH-CFZ 0 µM): 97.5%
viability at 24 h, 50 µM ([3]; BZL 50.0 µM + LTD-CPH-CFZ 0 µM): 95.7%
viability at 24 h, 100 µM ([3]; BZL 100.0 µM + LTD-CPH-CFZ 0 µM): 92.9%
Selectivity Index [4]: >67
fold more resistant Dm28c vs CL Brener epimastigotes ([5]; Dm28c vs CL Brener): 1.2 fold
fold more sensitive Y vs Dm28c epimastigotes ([5]; Y vs Dm28c): 1.6 fold

Source: article PMC6994103 (PLoS Neglected Tropical Diseases, 2020)
